Reference: publication PMC11921695 (BMC Cancer, 2025)

System: HIV-associated Kaposi sarcoma
Assay: Objective response by ACTG criteria
Assay type: in vivo, human
Conditions: for objective response (OR) rate: 90% CI
Description: For registered patients, pre-treatment evaluation included: physical examination, ophthalmologic exam, electrocardiogram (ECG), echocardiogram or multi-gated acquisition (MUGA) scan, chest x-ray and CT thorax, abdomen, and pelvis. Adverse events according to CTCAE version 4.0 [18] were recorded every three weeks. The burden of cutaneous disease was estimated by summed tumour area sizes (mm^2) from photographic image measurements and evaluated at baseline using ACTG criteria (Supplementary Appendix 3), with subsequent formal response assessments including clinical photographs taken every 6 weeks for 12 months or until disease progression. For patients with visceral or extensive disease, repeat CT scans at these time points were also performed.
OR rate was reported as the proportion of patients who achieved OR out of the total per-protocol population, with 90% confidence intervals (CI). Sensitivity analyses were also performed to compare this OR rate with ones that used the MTD population and the any-dose population as the denominator. The OR rate was also calculated for those who received at least six cycles of selumetinib.
The absence of any detectable residual disease, including tumour-associated oedema, persisting for at least 4 weeks.
A 50% or greater decrease in the number and/or size of previously existing lesions (skin, oral, measurable or evaluable visceral disease) lasting for at least 4 weeks without the appearance of new lesions or the appearance or worsening of tumour-associated oedema or effusions, […] of 25% or more in the product of bi-dimensional diameters of any indicator lesion.
Any response not meeting the criteria for progression or PR.

Cn1cnc2c(F)c(Nc3ccc(Br)cc3Cl)c(C(=O)NOCCO)cc21 [selumetinib, 6-(4-Bromo-2-chloro-phenylamino)-7-fluro-3-methyl-3 H-benzoimidazole-5-carboxylic acid (2-hydroxy-ethoxy)-amide hydrogen sulphate] was tested, and the “objective response (OR) rate” value (MTD population (sensitivity analysis)) was 6.7%, the “objective response (OR) rate” value (any-dose/safety population (sensitivity analysis)) was 6.3% and the “clinical benefit rate (CR, PR and SD)” value (any-dose/safety population, 16 patients) was 75%. The “objective response (OR) rate” value (per-protocol population, 12 patients, 75 mg bd + ART) was 8.3% and the response duration (the only patient with PR (deepened to CR after discontinuing at 3 cycles)) was 201 days.
